Converted amounts (≈) assume the structure as drawn. Blank lines part the entries; values can stand above or below the molecule they belong to.
Key:
Assay type in all cases: functional
[1] = test system: Pseudomonas aeruginosa; experiment: Antibacterial activity against Pseudomonas aeruginosa ATCC 27853 assessed as bacterial growth inhibition by agar dilution assay
[2] = test system: Acinetobacter baumannii; experiment: Antibacterial activity against Acinetobacter baumannii assessed as bacterial growth inhibition by agar dilution assay
[3] = test system: Staphylococcus aureus; experiment: Antibacterial activity against Staphylococcus aureus ATCC 29213 assessed as bacterial growth inhibition by agar dilution assay
[4] = test system: Staphylococcus aureus; experiment: Antibacterial activity against methicillin resistant Staphylococcus aureus assessed as bacterial growth inhibition by agar dilution assay
[5] = test system: Staphylococcus aureus; experiment: Antibacterial activity against Staphylococcus aureus ATCC 25923 assessed as bacterial growth inhibition by agar dilution assay
[6] = test system: Escherichia coli; experiment: Antibacterial activity against Escherichia coli ATCC 25922 assessed as bacterial growth inhibition by agar dilution assay
[7] = test system: Staphylococcus aureus; experiment: Antibacterial activity against Staphylococcus aureus assessed as bacterial growth inhibition by agar dilution assay
[8] = test system: Klebsiella pneumoniae; experiment: Antibacterial activity against Klebsiella pneumoniae assessed as bacterial growth inhibition by agar dilution assay
[9] = test system: Staphylococcus aureus; experiment: Antibacterial activity against methicillin resistant Staphylococcus aureus ATCC 33591 assessed as bacterial growth inhibition measured after 16 to 18 hrs by serial dilution method; details: time 16-18 hrs
[10] = test system: Staphylococcus aureus; experiment: Antibacterial activity against fluoroquinolone/methicillin resistant Staphylococcus aureus clinical isolate 19-27 assessed as bacterial growth inhibition measured after 16 to 18 hrs by serial dilution method; details: time 16-18 hrs
[11] = test system: Staphylococcus aureus; experiment: Antibacterial activity against clinical isolate aminoglycosides/tetracycline/methicillin resistant Staphylococcus aureus NRS 1 assessed as bacterial growth inhibition measured after 16 to 18 hrs by serial dilution method; details: time 16-18 hrs
[12] = test system: Staphylococcus aureus; experiment: Antibacterial activity against fluoroquinolone/methicillin resistant Staphylococcus aureus clinical isolate 19-26 assessed as bacterial growth inhibition measured after 16 to 18 hrs by serial dilution method; details: time 16-18 hrs
[13] = test system: Staphylococcus aureus; experiment: Antibacterial activity against fluoroquinolone/methicillin resistant Staphylococcus aureus clinical isolate 19-25 assessed as bacterial growth inhibition measured after 16 to 18 hrs by serial dilution method; details: time 16-18 hrs
[14] = test system: Staphylococcus aureus; experiment: Antibacterial activity against vancomycin-intermediate methicillin resistant Staphylococcus aureus ATCC 700699 assessed as bacterial growth inhibition measured after 16 to 18 hrs by serial dilution method; details: time 16-18 hrs
[15] = test system: Staphylococcus aureus; experiment: Antibacterial activity against Staphylococcus aureus Newman assessed as bacterial growth inhibition measured after 16 to 18 hrs by serial dilution method; details: time 16-18 hrs
[16] = test system: Staphylococcus aureus; experiment: Antibacterial activity against clinical isolate oxacillin/tetracycline/methicillin resistant Staphylococcus aureus NRS 100 assessed as bacterial growth inhibition measured after 16 to 18 hrs by serial dilution method; details: time 16-18 hrs
[17] = test system: Staphylococcus aureus; experiment: Antibacterial activity against clinical isolate linezolid/methicillin resistant Staphylococcus aureus NRS 271 assessed as bacterial growth inhibition measured after 16 to 18 hrs by serial dilution method; details: time 16-18 hrs
[18] = test system: Staphylococcus aureus; experiment: Antibacterial activity against clinical isolate erythromycin/methicillin resistant Staphylococcus aureus NRS 70 assessed as bacterial growth inhibition measured after 16 to 18 hrs by serial dilution method; details: time 16-18 hrs
[19] = test system: Staphylococcus aureus; experiment: Antibacterial activity against clinical isolate gentamycin/methicillin resistant Staphylococcus aureus NRS 108 assessed as bacterial growth inhibition measured after 16 to 18 hrs by serial dilution method; details: time 16-18 hrs
[20] = test system: Staphylococcus aureus; experiment: Antibacterial activity against methicillin resistant Staphylococcus aureus ATCC 43300 assessed as bacterial growth inhibition measured after 16 to 18 hrs by serial dilution method; details: time 16-18 hrs
[21] = test system: Escherichia coli; experiment: Antibacterial activity against Escherichia coli assessed as bacterial growth inhibition measured after 18 to 24 hrs by two fold serial dilution assay; details: time 18-24 hrs
[22] = test system: Pseudomonas aeruginosa; experiment: Antibacterial activity against Pseudomonas aeruginosa assessed as bacterial growth inhibition measured after 18 to 24 hrs by two fold serial dilution assay; details: time 18-24 hrs
[23] = test system: Staphylococcus aureus; experiment: Antibacterial activity against methicillin sensitive Staphylococcus aureus assessed as bacterial growth inhibition measured after 18 to 24 hrs by two fold serial dilution assay; details: time 18-24 hrs
[24] = test system: Klebsiella pneumoniae; experiment: Antibacterial activity against Klebsiella pneumoniae assessed as bacterial growth inhibition measured after 18 to 24 hrs by two fold serial dilution assay; details: time 18-24 hrs
[25] = test system: Escherichia coli; experiment: Antibacterial activity against Escherichia coli ATCC35218 assessed as bacterial growth inhibition measured after 18 to 24 hrs inhibition by broth microdilution assay; details: time 18-24 hrs
[26] = test system: Pseudomonas aeruginosa; experiment: Antibacterial activity against Pseudomonas aeruginosa assessed as bacterial growth inhibition by broth microdilution assay
[27] = test system: Staphylococcus aureus; experiment: Antibacterial activity against Staphylococcus aureus ATCC 29213 assessed as bacterial growth inhibition by broth microdilution assay
[28] = test system: Escherichia coli; experiment: Antibacterial activity against Escherichia coli assessed as bacterial growth inhibition measured after 24 hrs by serial dilution method
[29] = test system: Staphylococcus aureus; experiment: Antibacterial activity against methicillin resistant Staphylococcus aureus assessed as bacterial growth inhibition measured after 24 hrs by serial dilution method
[30] = test system: Pseudomonas aeruginosa; experiment: Antibacterial activity against Pseudomonas aeruginosa assessed as bacterial growth inhibition measured after 20 hrs by serial dilution method
[31] = test system: Staphylococcus aureus; experiment: Antibacterial activity against Staphylococcus aureus assessed as bacterial growth inhibition measured after 20 hrs by serial dilution method
[32] = test system: Klebsiella pneumoniae; experiment: Antibacterial activity against Klebsiella pneumoniae assessed as bacterial growth inhibition measured after 20 hrs by serial dilution method
[33] = test system: Escherichia coli; experiment: Antibacterial activity against Escherichia coli assessed as bacterial growth inhibition measured after 20 hrs by serial dilution method
[34] = test system: Escherichia coli; experiment: Antibacterial activity against Escherichia coli ATCC 8739 assessed as bacterial growth inhibition by agar dilution method
[35] = test system: Bacillus subtilis; experiment: Antibacterial activity against Bacillus subtilis PTCC 1023 assessed as bacterial growth inhibition by agar dilution method
[36] = test system: Klebsiella pneumoniae; experiment: Antibacterial activity against Klebsiella pneumoniae ATCC 10031 assessed as bacterial growth inhibition by agar dilution method
[37] = test system: Enterobacter cloacae; experiment: Antibacterial activity against Enterobacter cloacae PTCC 1003 assessed as bacterial growth inhibition by agar dilution method
[38] = test system: Staphylococcus epidermidis; experiment: Antibacterial activity against Staphylococcus epidermidis ATCC 12228 assessed as bacterial growth inhibition by agar dilution method
[39] = test system: Staphylococcus aureus; experiment: Antibacterial activity against Staphylococcus aureus ATCC 6538p assessed as bacterial growth inhibition by agar dilution method
[40] = test system: Staphylococcus aureus; experiment: Antibacterial activity against Staphylococcus aureus clinical isolate 1 assessed as bacterial growth inhibition by agar disc diffusion assay
[41] = test system: Escherichia coli; experiment: Antibacterial activity against Escherichia coli clinical isolate 1 assessed as bacterial growth inhibition by agar disc diffusion assay
[42] = test system: Pseudomonas aeruginosa; experiment: Antibacterial activity against Pseudomonas aeruginosa ATCC 27853 assessed as bacterial growth inhibition by agar disc diffusion assay
[43] = test system: Pseudomonas aeruginosa; experiment: Antibacterial activity against Pseudomonas aeruginosa clinical isolate 1 assessed as bacterial growth inhibition by agar disc diffusion assay
[44] = test system: Staphylococcus aureus; experiment: Antibacterial activity against Staphylococcus aureus ATCC 25923 assessed as bacterial growth inhibition by agar disc diffusion assay
[45] = test system: Alternaria; experiment: Antifungal activity against Alternaria assessed as fungal growth inhibition measured after 7 days by agar disc diffusion assay; details: 168 h, time 7 day
[46] = test system: Fusarium oxysporum f. sp. lycopersici; experiment: Antifungal activity against Fusarium oxysporum f. sp. lycopersici assessed as fungal growth inhibition measured after 7 days by agar disc diffusion assay; details: 168 h, time 7 day
[47] = test system: Escherichia coli; experiment: Antibacterial activity against Escherichia coli ATCC 25922 assessed as bacterial growth inhibition by agar disc diffusion assay
[48] = test system: Pseudomonas aeruginosa; experiment: Antibacterial activity against Pseudomonas aeruginosa assessed as zone of inhibition at 250 ug/ml by agar well diffusion assay; details: read-out: IZ
[49] = test system: Escherichia coli; experiment: Antibacterial activity against Escherichia coli assessed as zone of inhibition at 250 ug/ml by agar well diffusion assay; details: read-out: IZ
[50] = test system: Staphylococcus aureus; experiment: Antibacterial activity against vancomycin-intermediate methicillin resistant Staphylococcus aureus ATCC 700788 assessed as bacterial growth inhibition measured after 16 to 18 hrs by serial dilution method; details: time 16-18 hrs
[51] = test system: Klebsiella pneumoniae; experiment: Antibacterial activity against Klebsiella pneumoniae assessed as zone of inhibition at 250 ug/ml by agar well diffusion assay; details: read-out: IZ
[52] = test system: Staphylococcus aureus; experiment: Antibacterial activity against Staphylococcus aureus assessed as zone of inhibition at 250 ug/ml by agar well diffusion assay; details: read-out: IZ

SMILES: CCOC(=O)c1cn(Cc2nc3ccccc3n2Cc2ccccc2F)c2cc(Cl)c(F)cc2c1=O
MIC [1]: 1 µg/mL (≈ 1.97 µM) | MIC [2]: 1 µg/mL (≈ 1.97 µM) | MIC [3]: 1 µg/mL (≈ 1.97 µM) | MIC [4]: 1 µg/mL (≈ 1.97 µM) | MIC [5]: 1 µg/mL (≈ 1.97 µM) | MIC [6]: 1 µg/mL (≈ 1.97 µM) | MIC [7]: 1 µg/mL (≈ 1.97 µM) | MIC [8]: 1 µg/mL (≈ 1.97 µM)

SMILES: Cc1ccc(Oc2ccnc(Nc3ccc4c(=O)c(C(=O)O)cn(C5CC5)c4c3)n2)cc1
MIC [9]: ≤ 0.17 µg/mL | MIC [10]: ≤ 0.17 µg/mL | MIC [11]: ≤ 0.17 µg/mL | MIC [12]: ≤ 0.17 µg/mL | MIC [13]: ≤ 0.17 µg/mL | MIC [14]: ≤ 0.17 µg/mL | MIC [15]: ≤ 0.17 µg/mL | MIC [16]: ≤ 0.17 µg/mL | MIC [17]: ≤ 0.17 µg/mL | MIC [18]: ≤ 0.17 µg/mL | MIC [19]: ≤ 0.17 µg/mL | MIC [20]: ≤ 0.17 µg/mL

SMILES: COc1c(N2C[C@H]3CCCN(C(=O)Cn4cc(CN5C(=O)C(=O)c6ccccc65)nn4)[C@H]3C2)c(F)cc2c(=O)c(C(=O)O)cn(C3CC3)c12
MIC [21]: ≤ 0.03 µg/mL | MIC [22]: ≤ 0.03 µg/mL | MIC [23]: ≤ 0.03 µg/mL | MIC [24]: ≤ 0.03 µg/mL | MIC [25]: ≤ 0.03 µg/mL | MIC [26]: ≤ 0.03 µg/mL

MIC [27]: 0.031 µg/mL (≈ 0.0597 µM)
SMILES: COc1ccc2nc(CN3CCN(c4cc5c(cc4F)c(=O)c(C(=O)O)cn5C4CC4)CC3)[nH]c(=O)c2c1

SMILES: COc1c(N2C[C@@H]3CCCN[C@@H]3C2)c(F)cc2c(=O)c(C(=O)O)cn(C3CC3)c12 [MOXIFLOXACIN]
MIC [28]: 0.078 µg/mL (≈ 0.194 µM) | MIC [29]: 0.078 µg/mL (≈ 0.194 µM)

MIC [30]: 0.24 µg/mL (≈ 0.841 µM) | MIC [31]: 0.24 µg/mL (≈ 0.841 µM) | MIC [32]: 0.24 µg/mL (≈ 0.841 µM) | MIC [33]: 0.24 µg/mL (≈ 0.841 µM)
SMILES: Cc1cccc2cc(/C=C3\NC(=S)NC3=O)c(=O)[nH]c12

MIC [34]: 0.015 µg/mL (≈ 0.0235 µM) | MIC [35]: 0.015 µg/mL (≈ 0.0235 µM) | MIC [36]: 0.015 µg/mL (≈ 0.0235 µM) | MIC [37]: 0.015 µg/mL (≈ 0.0235 µM) | MIC [38]: 0.015 µg/mL (≈ 0.0235 µM) | MIC [39]: 0.015 µg/mL (≈ 0.0235 µM)
SMILES: CCOC(=O)C(C(=O)OCC)C(=O)c1cn(C2CC2)c2cc(N3CCN(/N=N/c4nc(OC)cc(OC)n4)CC3)c(F)cc2c1=O

SMILES: CCOP(=O)(OCC)C(NS(=O)(=O)Nc1ccccc1OC)c1cc2cccc(C)c2[nH]c1=O (configuration not stated)
MIC [40]: 0.125 µg/mL (≈ 0.245 µM) | MIC [41]: 0.125 µg/mL (≈ 0.245 µM) | MIC [42]: 0.125 µg/mL (≈ 0.245 µM) | MIC [43]: 0.125 µg/mL (≈ 0.245 µM) | MIC [44]: 0.125 µg/mL (≈ 0.245 µM) | MIC [45]: 0.125 µg/mL (≈ 0.245 µM) | MIC [46]: 0.125 µg/mL (≈ 0.245 µM) | MIC [47]: 0.125 µg/mL (≈ 0.245 µM)

SMILES: Cc1ncc([N+](=O)[O-])n1CC(C)OC(=O)c1cn(C2CC2)c2cc(N3CCNCC3)c(F)cc2c1=O (configuration not stated)
zone of inhibition at 250 µg/mL [48]: 25 mm | zone of inhibition at 250 µg/mL [49]: 25 mm | MIC [50]: ≤ 0.17 µg/mL | zone of inhibition at 250 µg/mL [51]: 25 mm | zone of inhibition at 250 µg/mL [52]: 25 mm

— ChEMBL document CHEMBL5360532, “Current scenario of quinolone hybrids with potential antibacterial activity against ESKAPE pathogens” (Eur J Med Chem, 2023)
